Positions of bridges follow the written chain, without caps; N, C: chain ends. Residues, ends and D or L forms follow the SMILES beside them.
Assays:
[1] = test system: male mice of the C57BL/6 strain; assay: In vivo mouse study: white blood cell, neutrophil and lymphocyte populations after 14 days of subcutaneous dosing; details: for Lymphocytes / Neutrophils / White Blood Cells: Day 14 blood, s.c. over 14 days, peptide 80 μg/kg once daily, G-CSF 10 μg/kg once daily, EPO 600 IU/kg Days 1, 4, 7, 10, 14, group mean; for increase in neutrophil population compared to mice in the control group / increase in the white blood cell population compared to mice in the control group: Day 14, vs control group without any treatment
From the text: In vivo Test System. Mouse was selected as the in vivo test system. Sufficient male mice of the C57BL/6 strain was obtained. The animals was obtained as weanlings of about 24-27 days of age on arrival. At randomization, their body weights were within ±20% of the overall mean for each sex. The health care and welfare of the mice were maintained in accordance with the requirement of the Animals (Scientific Procedures) Act 1986 UK. All animals were given clinical inspection for ill health on arrival. They were acclimatized for about three weeks and a veterinary inspection was performed before the start of dosing to ensure their suitability for study. The mice were assigned to treatment groups during the acclimatization period using a total randomization procedure. Group mean body weights were calculated and inspected to ensure there were no unacceptable difference between groups.
Preparation of Administered Formulation of [Leu^27]cyclo(Glu^22-Lys^26)-hPTH-(1-31)-NH2. The bulk freeze-dried peptide [Leu^27]cyclo(Glu^22-Lys^26)-hPTH-(1-31)-NH2 (SEQ ID NO: 4) was dissolved in 0.01 M acetic acid. The concentration of peptide in the solution was 1 μg/μL. The solution was re-aliquotted into dosing vials and kept frozen at approximately −70° C. The vials were then freeze-dried at the temperature lower than −20° C. and stored frozen until required. The freeze-dried aliquots for injection was reconstituted daily. The peptide was dissolved in an appropriate volume of purified water to an approximate concentration of 2-3 mg/mL. The phosphate-buffered saline (pH=7.4) was added to give the final required concentration and the pH value of the final solution is approximately 7.2. The capped vials were mixed thoroughly to ensure peptide was fully dissolved prior to use. Aseptic techniques and glass vials were used throughout dose preparation.
Preparation of Administered Formulation of G-CSF. G-CSF was provided at a concentration of 300 μg/mL in sorbito, sodium acetate and polysorbate 80 in water for injection. The stock solution was diluted accordingly with water for injection to provide the correct dosing concentration.
Preparation of Administered Formulation of EPO. EPO was provided at a concentration of 40,000 IU/mL in polysorbate 80, sodium chloride, sodium dihydrogen phosphate dihydrate, disodium phosphate dihydrate, glycine and water for injection. The stock solution was diluted accordingly with phosphate buffered solution to provide the correct dosing concentration.
In vivo Mouse Study. The peptide [Leu^27]cyclo(Glu^22-Lys^26)-hPTH-(1-31 )-NH2 (SEQ ID NO: 4), G-CSF or EPO were administered subcutaneously over 14 days. The mice were dosed as follows:
The peptide [Leu^27]cyclo(Glu^22-Lys^2 1)-hPTH-(1-3 I)-NH2 was administered to all mice in Groups 2, 3, 4 and 5 once daily for fourteen days at a dose level of 80 μg/kg.
Mice in Group 3, 4 and 5 also received EPO and/or G-CSF. EPO was administered on Days 1, 4, 7, 10 and 14 at a dose of 600 IU/kg. G-CSF was administered once daily for fourteen days at a dose level of 10 μg/kg.
Mice in 6, 7, 8 received EPO and/or G-CSF. EPO was administered on Days 1, 4, 7, 10 and 14 at a dose level of 600 IU/kg. G-CSF was administered once daily for fourteen days at a dose level of 10 μg/kg.
On Day 14, blood samples (0.5 mL EDTA nominal, 0.6 mL lithium heparin nominal) were withdrawn from all mice and were collected into lithium heparin tubes. The tubes were centrifuged and the plasma were separated and analyzed.

healthy older volunteers = assay: Phase I clinical trial: changes in blood cell populations from baseline to Day 7; format: in vivo, human; details: for effect on white blood cell population, especially neutrophil population: healthy adults, compared to placebo
Protocol: A Phase I, single-center, randomized double blind, placebo-controlled, multiple-escalating-dose study in healthy older volunteers was carried out for the peptide [Leu^27]cyclo(Glu^22-Lys^2 1)-hPTH-(1-31)-NH2 (SEQ ID NO: 4). Subjects were healthy males and females (non-reproductive potential), aged 40 to 65 years. […] Subcutaneous injections of placebo or the peptide with a dosage of 10 μg, 20 μg, 40 μg, 60 μg, or 80 μg was administered daily for 7 days. For each dosage level, 2 subjects (I male and I female) received placebo and 6 subjects (3 males and 3 females) received the peptide daily.
The number of white blood cells and the number neutrophils in a subject treated with the peptide increase as the dosage increases until it reaches the maximum at the dosage level of 60 μg. Increase in the number of white blood cells in subject treated with 60 μg of [Leu^27]cyclo(Glu^22-Lys^26)-hPTH-(1-31)-NH2 at Day 7 from the baseline level was about 8 times of that in subjects treated with placebo.

For “EPO: erythropoietin, an erythropoiesis regulator”, the Lymphocytes [1] was 3.5 ± 1.12 1000/cmm, the Neutrophils [1] was 0.5 ± 0.49 1000/cmm and the “White Blood Cells” value [1] was 4.3 ± 1.56 1000/cmm.

For `CC[C@H](C)[C@H](NC(=O)[C@H](CCC(=O)O)NC(=O)[C@H](CO)NC(=O)[C@@H](NC(=O)[C@@H](N)CO)C(C)C)C(=O)N[C@@H](CCC(N)=O)C(=O)N[C@@H](CC(C)C)C(=O)N[C@@H](CCSC)C(=O)N[C@@H](Cc1c[nH]cn1)C(=O)N[C@@H](CC(N)=O)C(=O)N[C@@H](CC(C)C)C(=O)NCC(=O)N[C@@H](CCCCN)C(=O)N[C@@H](Cc1c[nH]cn1)C(=O)N[C@@H](CC(C)C)C(=O)N[C@@H](CC(N)=O)C(=O)N[C@@H](CO)C(=O)N[C@@H](CCSC)C(=O)N[C@@H](CCC(=O)O)C(=O)N[C@@H](CCCNC(=N)N)C(=O)N[C@H](C(=O)N[C@H]1CCC(=O)NCCCC[C@@H](C(=O)N[C@@H](CC(C)C)C(=O)N[C@@H](CC(C)C)C(=O)N[C@@H](CCC(N)=O)C(=O)N[C@@H](CC(=O)O)C(=O)N[C@H](C(N)=O)C(C)C)NC(=O)[C@H](CCCNC(=N)N)NC(=O)[C@H](CC(C)C)NC(=O)[C@H](Cc2c[nH]c3ccccc23)NC1=O)C(C)C` [[Leu^27]cyclo(Glu^22-Lys^26)-hPTH-(1-31)-NH2] (H-SVSEIQLMHNLGKHLNSMERVEWLRKLLQDV-NH2; lactam 22-26; N-terminus assumed), the “increase in lymphocyte population” value ([1]; Day 14, vs control group) was ~20%, the “increase in neutrophil population compared to mice in the control group” value [1] was ~75% and the “increase in the white blood cell population compared to mice in the control group” value [1] was ~26%. For the same molecule, the Lymphocytes [1] was 3.7 ± 1.92 1000/cmm, the Neutrophils [1] was 0.7 ± 0.35 1000/cmm and the “White Blood Cells” value [1] was 4.8 ± 2.13 1000/cmm. The “Neutrophil, change in mean from baseline to Day 7” value (“Neutrophil, change in mean” for short) (healthy older volunteers; 10 μg s.c. daily for 7 days) was 1.22 x e^9/L, the “Platelet, change in mean from baseline to Day 7” value (“Platelet, change in mean” for short) (healthy older volunteers; 10 μg s.c. daily for 7 days) was 19.80 x e^9/L and the “Relative Neutrophil Count, change in mean from baseline to Day 7” value (shortened to “Relative Neutrophil Count, change”) (healthy older volunteers; 10 μg s.c. daily for 7 days) was 4%. For the same molecule, the “White Blood Cells, change in mean from baseline to Day 7” value (“White Blood Cells, change in mean” for short) (healthy older volunteers; 10 μg s.c. daily for 7 days) was 1.50 x e^9/L, the “Neutrophil, change in mean” value (healthy older volunteers; 20 μg s.c. daily for 7 days) was 1.22 x e^9/L and the “Platelet, change in mean” value (healthy older volunteers; 20 μg s.c. daily for 7 days) was 16.83 x e^9/L. For the same molecule, the “Relative Neutrophil Count, change” value (healthy older volunteers; 20 μg s.c. daily for 7 days) was 3%, the “White Blood Cells, change in mean” value (healthy older volunteers; 20 μg s.c. daily for 7 days) was 1.75 x e^9/L and the “Neutrophil, change in mean” value (healthy older volunteers; 40 μg s.c. daily for 7 days) was 2.88 x e^9/L. For the same molecule, the “Platelet, change in mean” value (healthy older volunteers; 40 μg s.c. daily for 7 days) was 28.50 x e^9/L, the “Relative Neutrophil Count, change” value (healthy older volunteers; 40 μg s.c. daily for 7 days) was 12% and the “White Blood Cells, change in mean” value (healthy older volunteers; 40 μg s.c. daily for 7 days) was 3.23 x e^9/L. The “Increase in the number of white blood cells at Day 7 from baseline relative to that in subjects treated with placebo” value (healthy older volunteers; 60 μg s.c. daily for 7 days) was “about 8 times”, the “Neutrophil, change in mean” value (healthy older volunteers; 60 μg s.c. daily for 7 days) was 4.53 x e^9/L and the “Platelet, change in mean” value (healthy older volunteers; 60 μg s.c. daily for 7 days) was 47.83 x e^9/L. For the same molecule, the “Relative Neutrophil Count, change” value (healthy older volunteers; 60 μg s.c. daily for 7 days) was 16%, the “White Blood Cells, change in mean” value (healthy older volunteers; 60 μg s.c. daily for 7 days) was 4.65 x e^9/L and the “Neutrophil, change in mean” value (healthy older volunteers; 80 μg s.c. daily for 7 days) was 4.40 x e^9/L. The “Platelet, change in mean” value (healthy older volunteers; 80 μg s.c. daily for 7 days) was 39.50 x e^9/L, the “Relative Neutrophil Count, change” value (healthy older volunteers; 80 μg s.c. daily for 7 days) was 17% and the “White Blood Cells, change in mean” value (healthy older volunteers; 80 μg s.c. daily for 7 days) was 4.40 x e^9/L. For the same molecule, the “increase in population of neutrophils at Day 7 relative to that for subjects treated with placebo” value (healthy older volunteers; Day 7, s.c. daily for 7 days) was “about 50 fold”, the “platelet count” value (healthy older volunteers; dosage level of 60 μg and 80 μg, s.c. daily for 7 days) was “Significant increase” and the “effect on white blood cell population, especially neutrophil population” value (healthy older volunteers; s.c. daily for 7 days) was “significant stimulating effect”. For the same molecule, the “effect on white blood cell population, especially neutrophil population” value (healthy older volunteers; s.c. daily for 7 days, listed as cyclic peptide of SEQ ID NO: 4) was “significant increase”.

B1: G-CSF: granulocyte colony-stimulating factor, a hematopoietic growth factor (protein, UniProt P09919 31-207, looked up)
Granulocyte …: TPLGPASSLPQSFLLKCLEQVRKIQGDGAALQEKLVSECATYKLCHPEELVLLGHSLGIPWAPLSSCPSQALQLAGCLSQLHSGLFLYQGLLQALEGISPELGPTLDTLQLDVADFATTIWQQMEELGMAPALQPTQGAMPAFASAFQRRAGGVLVASHLQSFLEVSYRVLRHLAQP
For B1, the “increase in neutrophil population compared to mice in the control group” value [1] was ~175%, the “increase in the white blood cell population compared to mice in the control group” value [1] was ~20% and the Lymphocytes [1] was 3.0 ± 1.30 1000/cmm. For the same molecule, the Neutrophils [1] was 1.1 ± 0.25 1000/cmm and the “White Blood Cells” value [1] was 4.5 ± 1.36 1000/cmm.

Reference: patent US20090022684A1, “Methods for hematopoietic stimulation” (priority 2006, published 2009)
